Test results published in patent US20240131199A1, “PH RESPONSIVE CYANINE DYES AND CONJUGATES THEREOF” (BRACCO IMAGING S.P.A., priority 2020, published 2024).
Like-named read-outs stand apart in the source and are kept apart here.

Key:
[1] = pK assessment from absorbance/emission versus pH in phosphate buffers; type: physicochemical; details: for pKa: phosphate buffers at different pH, inflection point of absorbance vs pH, phosphate buffers, read-out: pKa (by abs)
Method: From the analysis of the variation of the absorbance and emission with respect to the variation of pH, it was possible to calculate the pKa of the dyes of the invention as the inflection point of the interpolated curve.
All the pH buffers used for the experiment were phosphate based buffers and each pH point has been accurately checked with pH-meter. First the cyanine powder was dissolved in water at ca. 1 mg/mL concentration and then 10 μL of this mother solution were added to 1 ml of phosphate buffers at different pH, previously prepared mixing ortophosphoric acid and sodium hydroxide in the right amount to reach the desired pH. The diluted cyanine buffered solutions were then sampled and transferred into a 96 wells plate (clear for the absorbance measurements and dark for the emission measurements) for the analyses. By plotting for each solution the value of the absorbance at the maximum of the active form, for instance 780 nm for Compound 5, vs. the pH of the solution, a polynomial cubic curve was obtained, whose flex corresponds to the pKa value of the cyanine.

[2] = literature value; cited from earlier work
[3] = Optical characterization (absorbance, excitation and emission spectra, microplate reader); type: physicochemical; details: phosphate buffer; for Abs. Max. / Em. Max.: maximum of the active form
Method: All commercially available reagents used in the synthesis were obtained from Sigma Aldrich and TCI and they were used without further purification. c(RGDfK) was purchased from Apex Bio or Bachem. All the reactions were followed by HPLC (Agilent mod. 1100/1200) and HPLC-MS (Agilent mod. 1260, Quadrupole LC/MSD Mod. 6120) equipped with an absorption detector set at different wavelengths (Column: YMC-Triart Phenyl, 250×4.6 mm/S-5 μm/12 nm). Purifications were performed by flash chromatography on an automated purification system (CombiFlash® Rf+), using pre-packed silica C18 cartridges (Biotage® or Phenomenex) or by preparative HPLC on preparative YMC-Triart Phenyl column. Absorbance, excitation and emission values were assessed in a well plate reader to speed-up the measurements (SPARK).
Optical characterization was performed for each compound with Spark® multimode microplate reader, registering with specific 96-wells plate the absorbance, excitation and emission spectra of the fluorophore buffered in phosphate buffer at several pH, ranging from 3 to 8.
In particular, the absorbance, excitation and emission maxima of representative compounds of formula (I) and conjugates of formula (II) are shown in Table III.

[4] = Residual fluorescence at different pH relative to pH 3; type: physicochemical; details: unit assumed; for Em. at pH 5/Em at pH 3: fluorescence at pH 5 relative to maximum at pH 3; for Em. at pH 6/Em at pH 3: fluorescence at pH 6 relative to maximum at pH 3; for Em. at pH 7.5/Em at pH 3: fluorescence at pH 7.5 relative to maximum at pH 3
Method: The ratio of the fluorescence at different pH (5, 6 and 7.5) with respect to the maximum fluorescence collected at pH 3 (highly acidic) was calculated for several representative compounds of the invention and the results are reported in the following Table V. The results were also compared to the values calculated for the non-alkylated Reference Compound A.

[5] = pKa of prior-art pH sensitive cyanine dyes (literature); type: physicochemical; details: worked out from literature pKa

Compound `CC1(C)C(/C=C/C2=C(Cl)C(=C/C=C3/Nc4ccc(S(=O)(=O)O)cc4C3(C)C)/CCC2)=[N+](CCCCCC(=O)NCCCCC2NC(=O)[C@@H](Cc3ccccc3)NC(=O)[C@H](CC(=O)O)NC(=O)CNC(=O)[C@H](CCCNC(=N)N)NC2=O)c2ccc(C(=O)NCC(O)C(O)C(O)C(O)CO)cc21` (some centres unmarked) [Compound 11] has a pKa [1] of 6.3.

In the case of `CC1(C)C(/C=C/C2=C(Cl)C(=C/C=C3/Nc4ccc(S(=O)(=O)O)cc4C3(C)C)/CCC2)=[N+](CCCCCC(=O)O)c2ccc(S(=O)(=O)[O-])cc21` [Compound 5], the “pKa (from emission vs pH)” value ([1]; emission at 804 nm vs pH, second source of data) is reported as “same value of pKa” and the pKa [1] is reported as 5.9.

`CC1(C)C(/C=C/C2=C(Cl)C(=C/C=C3/N(CCCCCC(=O)O)c4ccc(C(=O)NCC(O)C(O)C(O)C(O)CO)cc4C3(C)C)/CCC2)=Nc2ccc(C(=O)NCC(O)C(O)C(O)C(O)CO)cc21` (centres unmarked) [Compound 7] gave a pKa [1] of 6.1.

For `CC1(C)C(/C=C/C=C/C=C2/Nc3ccc(S(=O)(=O)O)cc3C2(C)CCCCCC(=O)O)=[N+](CCCCS(=O)(=O)O)c2ccc(S(=O)(=O)O)cc21` (centres unmarked) [CypHer5E], the pKa [2] is given as about 7.3.

For `CC1(C)C(/C=C/C=C/C=C/C=C2/Nc3ccc(S(=O)(=O)O)cc3C2(C)C)=[N+](CCCCCC(=O)O)c2ccc(S(=O)(=O)O)cc21` [Compound 8], the “Exc. Max.” value [3] was 740 nm, the “Abs. Max.” value [3] was 742 nm and the “Em. Max.” value [3] was 777 nm. The pKa [1] was 6, the Em. at pH 5/Em at pH 3 [4] was 96% and the Em. at pH 6/Em at pH 3 [4] was 66%. It also gave an Em. at pH 7.5/Em at pH 3 [4] of 10%.

`CC1(C)C(/C=C/C(Cl)=C/C=C2/N(CCCCCC(=O)O)c3ccc4c(S(=O)(=O)O)cc(S(=O)(=O)O)cc4c3C2(C)C)=Nc2ccc3c(S(=O)(=O)O)cc(S(=O)(=O)O)cc3c21` [Compound 9] showed a pKa [1] of 6.7.

For `CC1(C)C(/C=C/C2=C(Cl)C(=C/C=C3/Nc4ccc(C(=O)NCC(O)C(O)C(O)C(O)CO)cc4C3(C)C)/CCC2)=[N+](CCCCCC(=O)NCCCCC2NC(=O)[C@@H](Cc3ccccc3)NC(=O)[C@H](CC(=O)O)NC(=O)CNC(=O)[C@H](CCCNC(=N)N)NC2=O)c2ccc(C(=O)NCC(O)C(O)C(O)C(O)CO)cc21` (some centres unmarked) [Compound 12], the “Exc. Max.” value [3] was 790 nm, the “Abs. Max.” value [3] was 793 nm and the “Em. Max.” value [3] was 814 nm.

In the case of `CC[N+]1=C(/C=C/C=C/C=C2/Nc3ccc(CC(=O)O)cc3C2(C)C)C(C)(C)c2cc(S(=O)(=O)[O-])ccc21` [pentamethine cyanine dye], the pKa [2] is given as 7.5.

Work on `CC1(C)C(/C=C/C2=C(Cl)C(=C/C=C3/Nc4ccc(S(=O)(=O)O)cc4C3(C)C)/CCC2)=[N+](CCCCCC(=O)NCCCCC2NC(=O)[C@@H](Cc3ccccc3)NC(=O)[C@H](CC(=O)O)NC(=O)CNC(=O)[C@H](CCCNC(=N)N)NC2=O)c2ccc(S(=O)(=O)[O-])cc21` (some centres unmarked) [Compound 10] yielded a pKa [1] of 5.8.

Work on `CC1(C)C(/C=C/C2=C(Cl)C(=C/C=C3/Nc4ccc(S(=O)(=O)O)cc4C3(C)C)/CCC2)=Nc2ccc(S(=O)(=O)O)cc21` [Reference Compound A, reference compound] yielded a pKa [1] of 4.6, an Em. at pH 5/Em at pH 3 [4] of 40% and an Em. at pH 6/Em at pH 3 [4] of 10%. For the same compound, the Em. at pH 7.5/Em at pH 3 [4] was 1%, the “pH at which 95% protonation is achieved” value [5] was 3.7 and the pKa [2] was 4.7.

For `CC1(C)C(/C=C/C2=C(c3ccc(C(=O)O)cc3)C(=C/C=C3/Nc4ccc(S(=O)(=O)O)cc4C3(C)C)/CCC2)=Nc2ccc(S(=O)(=O)O)cc21` [B], the “pH at which 95% protonation is achieved” value [5] is given as 4.2 and the pKa [2] is given as 5.2.

Work on `CC1(C)C(/C=C/C2=C(c3ccc(C(=O)NCCS(=O)(=O)O)cc3)C(=C/C=C3/Nc4ccc(S(=O)(=O)O)cc4C3(C)C)/CCC2)=[N+](CCCCCC(=O)O)c2ccc(S(=O)(=O)[O-])cc21` [Compound 4] yielded a pKa [1] of 6.4.

For `CC(CC[N+]1=C(/C=C/C2=C(Cl)C(=C/C=C3/Nc4ccc(S(=O)(=O)O)cc4C3(C)C)/CCC2)C(C)(C)c2cc(C(=O)O)ccc21)S(=O)(=O)[O-]` (centres unmarked) [Compound 1], the “Exc. Max.” value [3] was 783 nm, the “Abs. Max.” value [3] was 784 nm and the “Em. Max.” value [3] was 804 nm. For the same compound, the pKa [1] was 6, the Em. at pH 5/Em at pH 3 [4] was 104% and the Em. at pH 6/Em at pH 3 [4] was 55%. For the same compound, the Em. at pH 7.5/Em at pH 3 [4] was 9%.

With `CC(CC[N+]1=C(/C=C/C2=C(Cl)C(=C/C=C3/Nc4ccc(S(=O)(=O)O)cc4C3(C)C)/CCC2)C(C)(C)c2cc(C(=O)NCC(O)C(O)C(O)C(O)CO)ccc21)S(=O)(=O)[O-]` (centres unmarked) [Compound 3] the “Exc. Max.” value [3] was 780 nm, the “Abs. Max.” value [3] was 782 nm and the “Em. Max.” value [3] was 807 nm.

Compound `CC1(C)C(/C=C/C2=C(Cl)C(=C/C=C3/Nc4ccc(S(=O)(=O)[O-])cc4C3(C)C)/CCC2)=[N+](CCCCCC(=O)O)c2ccc(C(=O)NCC(O)C(O)C(O)C(O)CO)cc21` (centres unmarked) [Compound 6] has a pKa [1] of 6.
